This is an account of results in paper PMC10602061 (Research Square, 2023).

The test system of data set [1] is triple-negative breast cancer (TNBC). The following applies: triple-negative breast cancer (TNBC) model; cited from earlier work. From the text:
(§1) Chemokinostatin-1 (CKS1) is a 24-mer peptide originally discovered as an anti-angiogenic peptide. Karagiannis and Popel developed a computational method to identify anti-angiogenic sequences contained in the human proteome and discovered common sequences conserved within protein domains contained in angiogenesis-related proteins. CKS1 is derived from a sequence shared in the CXC chemokine family.

Data set [2] deals with glioma. The following applies: glioma model; cited from earlier work.
Excerpt: as §1

For data set [3], the system named is NIH/3T3 normal fibroblasts. Put plainly: LDH release (CyQUANT LDH cytotoxicity assay). The data set is classed as cell-based, murine. The conditions noted are these: NIH/3T3 fibroblasts, indicated concentration of CKS1, 6 hours; N = 3. Background: Release of lactate dehydrogenase indicates damage to the cell membrane.
Procedure: (§5) 1.0 × 10^4 cells were seeded in a 96-well plate and incubated overnight. The cells were washed once, and the medium was replaced with serum free media. Cells were treated with CKS1 for the indicated time and concentration. CyQUANT LDH cytotoxicity assay (Thermo Fisher Scientific) was used following the manufacturer’s instructions to measure the release of LDH. LDH release was normalized to the amount of LDH released from cells treated with lysis buffer.
The subject of data set [4] is caspase-3 in 4T1 cells. Put plainly: Caspase-3 activity assay in cell lysate. The class given is cell-based, murine. The conditions noted are these: 100 μM CKS1, indicated time, fluorescence divided by protein concentration, N = 3. The method, then:
1.0 × 10^4 4T1 cells were seeded in 96-well plates and incubated overnight. After CKS1 treatment, the cells were lysed using lysis buffer (Cell Signaling Technology, #7018). The activity of caspase-3 in the cell lysate was quantified using the caspase-3 activity assay kit (Cell Signaling Technology, #5723) following the manufacturer’s instructions. Briefly, the cell lysate was incubated with a substrate of caspase-3 which was designed to emit fluorescence when cleaved. After incubation, the fluorescence was measured using a plate reader. The protein concentration of the cell lysate was quantified using the DC protein assay kit (Bio-Rad, Hercules, CA). The caspase-3 activity was divided by the protein concentration to obtain the caspase-3 activity per μg/mL protein in the cell lysate.

In data set [5] the test system is 4T1 cells. Put plainly: Transmission electron microscopy of cell morphology. The data set is classed as cell-based, murine. The conditions noted are these: 100 μM CKS1, 30 minutes. On the procedure: Samples were fixed in 2.5% glutaraldehyde, 3 mM MgCl2 in 0.1 M sodium cacodylate buffer, pH 7.2 overnight at 4°C. After buffer rinse, samples were postfixed in 2% osmium tetroxide in 0.1 M sodium cacodylate for at least one hour (no more than two) on ice in the dark. After osmium, samples were rinsed in 0.1 M Maleate buffer (pH 6.2), followed by uranyl acetate in 0.1 M Maleate (0.22 μm filtered, 1 h, dark), dehydrated in a graded series of ethanol and embedded in Epon (PolySci) resin. Samples were polymerized at 60°C overnight. Thin sections, 60 to 90 nm, were cut with a diamond knife on a Leica UCT ultramicrotome and picked up with 2×1 mm Formvar copper slot grids. Grids were stained with 2% uranyl acetate (aq.) followed by lead citrate and observed with a Hitachi 7600 TEM at 80 kV. Images were captured with an AMT CCD XR80 (8-megapixel camera - side mount AMT XR80 – high-resolution highspeed camera).

Data set [6] has as its system 4T1 cells. Put plainly: JC-1 mitochondrial membrane potential imaging. The class given is cell-based, murine. The conditions noted are these: 100 μM CKS1, live cell imaging, 25 cells, representative of N = 3. The method, then:
(§2) Fluorescence labeling of cells was performed by seeding 5.0 × 10^4 4T1 cells in a 35mm dish on a collagen-coated No. 1.5 coverslip with a 14 mm glass diameter (MatTek, Ashland, MA). After overnight incubation, the cells were washed once with serum free media and replaced with fresh serum free media. For cell membrane labeling, NR12S (R&D Systems, Minneapolis, MN, #7509) was added at a final concentration of 0.3 μM and incubated for 30 minutes. For cell cytosol labeling, Calcein-AM (Thermo Fisher Scientific, C1430) was added at a final concentration of 5 μg/mL and incubated for 10 minutes. For mitochondrial membrane labeling, JC-1 (Thermo Fisher Scientific, T3168) was added at a final concentration of 10 μg/mL and incubated for 10 minutes. For nuclear staining, Hoechst 33342 (Cell Signaling Technology, #4082) was added at a final concentration of 5 μg/mL and incubated for 10 minutes.
(§3) Cells were imaged on either a Zeiss LSM 700 or a 3i spinning disk confocal microscope. Samples were imaged with optimized microscope settings. Z-stack, time-lapse, or multi-channel acquisition settings were adjusted based on the experimental requirements. Images were then acquired with the appropriate excitation and emission wavelengths for each fluorophore.
(§4) Image analysis was performed using Fiji software. For each image/video, the brightness and the contrast were adjusted. […]

The test system of data set [7] is 4T1 cells. The data set is described as follows: xCELLigence real-time cell viability assay (RTCA). The class given is cell-based, murine. The conditions noted are these: serum free media, representative of N = 3. The method, then: 3,000 cells were seeded in the wells of an xCELLigence RTCA E-plate 16 (Agilent, Santa Clara, CA). After the cells adhered to the plate, the media was replaced with serum free media, and the cells were treated with CKS1 at the indicated concentrations. The viability of the cells was monitored using the xCELLigence RTCA analyzer (Agilent).

Data set [8] deals with 4T1 cells. The data set is described as follows: Fluorescence live cell imaging, calcein-AM stained cytosol. The class given is cell-based, murine. The conditions noted are these: 100 μM CKS1, live cell imaging. The method, then:
as §2, §3, §4

The subject of data set [9] is human umbilical vein endothelial cells (HUVECs). The data set is described as follows: LDH release (CyQUANT LDH cytotoxicity assay). The class given is cell-based. The following applies: indicated concentration of CKS1, 6 hours, N = 3.
Procedure: as §5

Ends that are not written are not given here.

In the case of “NGRKACLNPASPIVKKIIEKMLNS-NH2 [CKS1, Chemokinostatin-1]”, the “Suppression of tumor growth” value in [1] and in data set [2] was “efficacy in suppressing tumor growth was demonstrated” throughout. The “Cell death (release of LDH) in non-cancerous cells” value in data set [3] and in [9] was “did not induce cell death” each time. In data set [4], the “Activity of caspase-3” value is given as “increased”. The “Cell membrane integrity by electron microscopy” value in data set [5] was “ruptured”. The “Nuclear membrane integrity by electron microscopy” value in data set [5] is “not ruptured”. In data set [6], the “Mitochondrial membrane potential (JC-1 green/red fluorescence)” value was “rapidly diminishes the mitochondrial membrane potential”. Further, the “Time after treatment at which cell death (reduction in cell index) was observed” value in data set [7] (4T1 cells, 3,000 cells per well) is at most 1 h. Moreover, the “Dose dependence of cell death (reduction in cell index)” value in [7] (4T1 cells) is reported as “dose-dependent”. In [8], the “Events after treatment in calcein-AM stained cells” value was “influx of the surrounding media into the cells”.
